Data: US8178148B2, “Coffee drink composition” (Kao Corporation, priority 2004, dated 2012)

System: spontaneously hypertensive rats (SHR)
Experiment: Evaluation of hypotensive effect of FH1041 with added hydroxyhydroquinone (Example 3)
Format: in vivo, rat
Conditions: oral, HHQ added to FH1041 (300 mg/kg as total chlorogenic acids)
Procedure: (a) As in Example 2, 12-week-old male spontaneously hypertensive rats (SHR) was bred preliminarily.
(B) Administration Method and Amount: • Physiological saline was orally administered to a control group. An extract from raw coffee beans (“Flavor Holder FH1041”, product of T. Hasegawa Co., Ltd.) having chlorogenic acids as a main component was administered to a comparison group. The extract was prepared so that its administration amount would be 300 mg/kg in terms of the total chlorogenic acid amount. In test group 1, an administration material was prepared to permit the administration of FH1041 in an amount of 300 mg/kg in terms of a total chlorogenic acid amount and the administration of hydroxyhydroquinone in an amount of 0.03 mg/kg (0.01% relative to the total chlorogenic acid amount). In test group 2, an administration material was prepared to permit the administration of FH1041 in an amount of 300 mg/kg in terms of a total chlorogenic acid amount and the administration of hydroxyhydroquinone in an amount of 0.3 mg/kg (0.1% relative to the total chlorogenic acid amount). […]
Test method: One group consisted of three SHR. Systolic blood pressures of the caudal artery were measured prior to oral administration and 12 hours after administration and based on them, a percent change in blood pressure was calculated. […]

Oc1ccc(O)c(O)c1 [hydroxyhydroquinone]
Influence on the hypotensive effect of chlorogenic acids: disturbed
